Measured values reported in the supplement of paper PMC11208160.

Assay: recombinant UMI read abundance after kanamycin selection (control-corrected) (log10(CPM+1)); higher = more efficient recombination; extreme values may be limits of the assay; sequences stand for … in AGTGCAGAGAAAATCGGCCAGTTTTCTCTGCCTGCAGTCCGCATGCCGTGGGACCCCTTGGGTTCTAACCTGTTGCCTAGATTTATGCAGCGGACTGCCTTTCTCCCAAAGTGATAAACCGG…AGGTTGGTTTCACT; site = the 11-nt donor
Method in brief: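 Counts of recombinant UMIs were reported as log10(CPM+1). Before that, they were converted to CPM, averaged over replicates and scaled using control-derived factors. They came from PCR across the donor–target junction after Escherichia coli carrying the pair library and target plasmid was plated on IPTG (0.07 mM) plus kanamycin, or unselected, in two replicates each.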
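Also: IS621 bridge recombinase in Escherichia coli cells against a fixed T5 target plasmid.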

| Sequence | recombinant UMI read abundance (log10) |
| --- | --- |
| GAGTAGGCATGGACCGGTTTTCCCGGTAATCCGTATTTGAT (site GAGTAGGCTAT) | 1.96 |
| GAGTAGGCATGGACCGGTTTTCCCGGTAATCCGTATTTGGG (site GAGTAGGCTCC) | 0.566 |
| GAGTCATCATGGACCGGTTTTCCCGGTAATCCGTATTTGGT (site GAGTCATCTAC) | 1.02 |
| GAGTCCCCATGGACCGGTTTTCCCGGTAATCCGTATTTGTC (site GAGTCCCCTGA) | 0.99 |
| GAGTGATCATGGACCGGTTTTCCCGGTAATCCGTATTTGCT (site GAGTGATCTAG) | 2.62 |
| GAGTTCGCATGGACCGGTTTTCCCGGTAATCCGTATTTGGA (site GAGTTCGCTTC) | 1.08 |
| GATAAATCATGGACCGGTTTTCCCGGTAATCCGTATTTGAC (site GATAAATCTGT) | 1.03 |
| GATAAGTCATGGACCGGTTTTCCCGGTAATCCGTATTTGCC (site GATAAGTCTGG) | 2.1 |
| GATACGACATGGACCGGTTTTCCCGGTAATCCGTATTTGTT (site GATACGACTAA) | 0.259 |
| GATACTGCATGGACCGGTTTTCCCGGTAATCCGTATTTGCA (site GATACTGCTTG) | 1.61 |
| GATACTGCATGGACCGGTTTTCCCGGTAATCCGTATTTGTC (site GATACTGCTGA) | 1.28 |
| GATAGGTCATGGACCGGTTTTCCCGGTAATCCGTATTTGGA (site GATAGGTCTTC) | 1.15 |
| GATATAGCATGGACCGGTTTTCCCGGTAATCCGTATTTGGT (site GATATAGCTAC) | 1.08 |
| GATATATCATGGACCGGTTTTCCCGGTAATCCGTATTTGCG (site GATATATCTCG) | 1.42 |
| GATCAAACATGGACCGGTTTTCCCGGTAATCCGTATTTGAA (site GATCAAACTTT) | 0 |
| GATCCCTCATGGACCGGTTTTCCCGGTAATCCGTATTTGGC (site GATCCCTCTGC) | 0.839 |
| GATCCGTCATGGACCGGTTTTCCCGGTAATCCGTATTTGCG (site GATCCGTCTCG) | 0.274 |
| GATCCTACATGGACCGGTTTTCCCGGTAATCCGTATTTGCT (site GATCCTACTAG) | 0.00962 |
| GATCCTTCATGGACCGGTTTTCCCGGTAATCCGTATTTGTC (site GATCCTTCTGA) | 0.252 |
| GATCTCTCATGGACCGGTTTTCCCGGTAATCCGTATTTGAT (site GATCTCTCTAT) | 0.578 |
| GATGACACATGGACCGGTTTTCCCGGTAATCCGTATTTGTC (site GATGACACTGA) | 1.18 |
| GATGACTCATGGACCGGTTTTCCCGGTAATCCGTATTTGGT (site GATGACTCTAC) | 2.49 |
| GATGCAGCATGGACCGGTTTTCCCGGTAATCCGTATTTGTA (site GATGCAGCTTA) | 1.62 |
| GATGCAGCATGGACCGGTTTTCCCGGTAATCCGTATTTGTT (site GATGCAGCTAA) | 0.749 |
| GATGTACCATGGACCGGTTTTCCCGGTAATCCGTATTTGGC (site GATGTACCTGC) | 0.247 |

| Sequence | recombinant UMI read abundance (log10) |
| --- | --- |
| GATTACTCATGGACCGGTTTTCCCGGTAATCCGTATTTGTC (site GATTACTCTGA) | 1.09 |
| GATTATCCATGGACCGGTTTTCCCGGTAATCCGTATTTGCC (site GATTATCCTAG) | 0 |
| GATTATCCATGGACCGGTTTTCCCGGTAATCCGTATTTGCC (site GATTATCCTCG) | 0 |
| GATTATCCATGGACCGGTTTTCCCGGTAATCCGTATTTGCC (site GATTATCCTGG) | 0 |
| GATTATCCATGGACCGGTTTTCCCGGTAATCCGTATTTGCC (site GATTATCCTTG) | 0 |
| GATTCATCATGGACCGGTTTTCCCGGTAATCCGTATTTGCG (site GATTCATCTCG) | 1.2 |
| GATTCGGCATGGACCGGTTTTCCCGGTAATCCGTATTTGAC (site GATTCGGCTGT) | 0.484 |
| GATTGCGCATGGACCGGTTTTCCCGGTAATCCGTATTTGCG (site GATTGCGCTCG) | 0.805 |
| GATTGGACATGGACCGGTTTTCCCGGTAATCCGTATTTGAT (site GATTGGACTAT) | 0.838 |
| GATTGGACATGGACCGGTTTTCCCGGTAATCCGTATTTGAT (site GATTGGACTCT) | 0.0264 |
| GATTGGACATGGACCGGTTTTCCCGGTAATCCGTATTTGAT (site GATTGGACTGT) | 0 |
| GATTGGACATGGACCGGTTTTCCCGGTAATCCGTATTTGAT (site GATTGGACTTT) | 0.0212 |
| GATTGGACATGGACCGGTTTTCCCGGTAATCCGTATTTGCC (site GATTGGACTGA) | 0 |
| GATTGGACATGGACCGGTTTTCCCGGTAATCCGTATTTGCC (site GATTGGACTGC) | 0 |
| GATTGGACATGGACCGGTTTTCCCGGTAATCCGTATTTGCC (site GATTGGACTGG) | 2.68 |
| GATTGGACATGGACCGGTTTTCCCGGTAATCCGTATTTGCC (site GATTGGACTGT) | 0 |
| GATTGGACATGGACCGGTTTTCCCGGTAATCCGTATTTGTC (site GATTGGACTGA) | 0.657 |
| GATTGGACATGGACCGGTTTTCCCGGTAATCCGTATTTGTC (site GATTGGACTGC) | 0 |
| GATTGGACATGGACCGGTTTTCCCGGTAATCCGTATTTGTC (site GATTGGACTGG) | 0.913 |
| GATTGGACATGGACCGGTTTTCCCGGTAATCCGTATTTGTC (site GATTGGACTGT) | 0.172 |
| GATTTATCATGGACCGGTTTTCCCGGTAATCCGTATTTGTC (site GATTTATCTGA) | 0.525 |
| GATTTCGCATGGACCGGTTTTCCCGGTAATCCGTATTTGGG (site GATTTCGCTCC) | 0.00434 |
| GCAAACGCATGGACCGGTTTTCCCGGTAATCCGTATTTGTG (site GCAAACGCTCA) | 1.98 |
| GCAACTACATGGACCGGTTTTCCCGGTAATCCGTATTTGTG (site GCAACTACTCA) | 1.17 |
| GCAAGTGCATGGACCGGTTTTCCCGGTAATCCGTATTTGTC (site GCAAGTGCTGA) | 0 |

| Sequence | recombinant UMI read abundance (log10) |
| --- | --- |
| GCAATATCATGGACCGGTTTTCCCGGTAATCCGTATTTGCA (site ACAGTATCTTG) | 1.37 |
| GCAATATCATGGACCGGTTTTCCCGGTAATCCGTATTTGCA (site GCAATATCTTG) | 1.75 |
| GCAATTCCATGGACCGGTTTTCCCGGTAATCCGTATTTGAG (site GCAATTCCTCT) | 0.651 |
| GCAATTGCATGGACCGGTTTTCCCGGTAATCCGTATTTGCC (site GCAATTGCTGG) | 0 |
| GCAATTTCATGGACCGGTTTTCCCGGTAATCCGTATTTGTA (site GCAATTTCTTA) | 2.26 |
| GCACATGCATGGACCGGTTTTCCCGGTAATCCGTATTTGGA (site GCACATGCTTC) | 1.05 |
| GCACCTTCATGGACCGGTTTTCCCGGTAATCCGTATTTGTT (site GCACCTTCTAA) | 1.09 |
| GCACGATCATGGACCGGTTTTCCCGGTAATCCGTATTTGTA (site GCACGATCTTA) | 2.74 |
| GCACTGCCATGGACCGGTTTTCCCGGTAATCCGTATTTGCT (site GCACTGCCTAG) | 1.41 |
| GCACTTCCATGGACCGGTTTTCCCGGTAATCCGTATTTGTT (site GCACTTCCTAA) | 0.561 |
| GCAGAAACATGGACCGGTTTTCCCGGTAATCCGTATTTGGC (site GCAGAAACTGC) | 2.87 |
| GCAGTAGCATGGACCGGTTTTCCCGGTAATCCGTATTTGCC (site GCAGTAGCTGG) | 0.831 |
| GCAGTGGCATGGACCGGTTTTCCCGGTAATCCGTATTTGGT (site GAAGTGGCTAC) | 0.0767 |
| GCAGTGGCATGGACCGGTTTTCCCGGTAATCCGTATTTGGT (site GCAGTGGCTAC) | 0.668 |
| GCAGTGGCATGGACCGGTTTTCCCGGTAATCCGTATTTGGT (site GGAGTGGCTAC) | 0.276 |
| GCAGTGGCATGGACCGGTTTTCCCGGTAATCCGTATTTGGT (site GTAGTGGCTAC) | 0.0239 |
| GCATACCCATGGACCGGTTTTCCCGGTAATCCGTATTTGAC (site GCATACCCTGT) | 1.04 |
| GCATCAGCATGGACCGGTTTTCCCGGTAATCCGTATTTGTG (site GCATCAGCTCA) | 1.49 |
| GCATGGGCATGGACCGGTTTTCCCGGTAATCCGTATTTGAG (site GCATGGGCTCT) | 1.33 |
| GCATTATCATGGACCGGTTTTCCCGGTAATCCGTATTTGGC (site GCATTATCTGC) | 2.82 |
| GCCAAGCCATGGACCGGTTTTCCCGGTAATCCGTATTTGTA (site GCCAAGCCTTA) | 1.69 |
| GCCAAGCCATGGACCGGTTTTCCCGGTAATCCGTATTTGTA (site GCCACGCCTTA) | 0.00534 |
| GCCAAGCCATGGACCGGTTTTCCCGGTAATCCGTATTTGTA (site GCCAGGCCTTA) | 0.00969 |
| GCCAAGCCATGGACCGGTTTTCCCGGTAATCCGTATTTGTA (site GCCATGCCTTA) | 0.00407 |
| GCCACGACATGGACCGGTTTTCCCGGTAATCCGTATTTGTA (site GCCACGACTTA) | 2.11 |
